Data taken from patent US20250333418A1, “PURINE COMPOUNDS, COMPOSITIONS COMPRISING THEM AND USES THEREOF” (Novo Nordisk A/S, priority 2022, published 2025).

What was measured:
human CB1 receptor [1] = target: T1, human CB1 receptor (Homo sapiens, UniProt P21554); test: bioSensAll GAPL-Gi2 BRET biosensor assay in HEK293 cells transfected with hCB1; test compound added before EC75-80 of agonist CP55,940 (0.1 nM); type: cell-based; conditions: vs CP55,940 0.1 nM (EC75-80), read-out: CB1 wt Gi2 IC50
T1 construct: expressed in transfected cells; host or cells: HEK293
Procedure: (§1) Using polyethylenimine (PEI) transfection agent, HEK293 cells were transfected in suspension with the human CB1 receptor and one of the following bioSensAll® assays: GAPL-Gi2, or β-arrestin plasma membrane (PM) translocation biosensor (+GRK2). Cells were directly seeded in 96-well plates immediately following transfection.
(§2) Cells were incubated with coelenterazine (luciferase substrate) and different test compounds prior to the measurement of BRET signals.
(§3) Used in this project are i) Gα plasma membrane (GAPL) biosensors and the ii) β-arrestin plasma membrane translocation biosensor.
i) GAPL sensors are used to monitor the activation of heterotrimeric G proteins at the plasma membrane upon receptor stimulation. Specifically, these multimolecular BRET sensors detect the plasma membrane recruitment of proteins that interact with active Gα subunits in a G protein family-selective manner. G protein activation following receptor stimulation generally leads to an increase in the BRET signal.
(§4) HEK293 cells were maintained in Dulbecco's Modified Eagle Medium (DMEM) (Wisent; cat #319-030-CL: without sodium pyruvate, with 4.5 g/L glucose, without L-glutamine) supplemented with 1% penicillin-streptomycin (Wisent; cat #450-201-EL) and 2 or 10% fetal bovine serum (Wisent cat #090150).
(§5) HEK293 cells were co-transfected with hCB1 and one of the above-listed bioSensAll® assays. For each transfection condition: • the total amount of transfected DNA was kept constant at 1 μg per mL of cell culture to be transfected; whenever necessary, salmon sperm DNA (Invitrogen, cat #15632011) was used as ‘carrier’ DNA to supplement plasmid DNA (i.e., biosensor and receptor); • the PEI (polyethylenimine 25 kDa linear, PolyScience, cat #23966) to DNA ratio (ug:ug) was fixed at 3:1.
(§6) Transfections were carried out as follows: • DNA and PEI were first diluted separately in 150 mM NaCl. The volume of the diluent in each tube corresponds to 5% of the cell culture volume to be transfected. • Once DNA and PEI were diluted, the PEI-containing solution was added to the DNA solution and the DNA/PEI mixture immediately vortexed for 5 seconds. • The DNA/PEI mixture was incubated for at least 20 minutes at room temperature to allow for the formation of DNA/PEI complexes. • During the incubation, HEK293 cells were detached, counted and re-suspended in culture medium (composition specified above). • At the end of the incubation period, the DNA/PEI mixture was added to the cells. • Cells were finally distributed in 96-well plates (White Opaque 96-well/Microplates, Greiner, cat #655083 or CulturPlate-96, White Opaque 96-well Microplate, PerkinElmer, cat #6005688) at a density of 30,000 cells per well.
(§7) At 48 hours post-transfection: • Using 450-Select TS Biotek plate washer, culture medium was aspirated and replaced with 100 μL of Hank's Balanced Salt Solution buffer (HBSS) (Wisent, cat #319-067CL: without red phenol; with sodium bicarbonate, with calcium and magnesium, with HEPES) per well. • Plates were then incubated (equilibrated) at 37° C., 5% CO2 for 60 minutes. • Increasing doses of test compounds were then added to each well using the HP D300e digital dispenser (Tecan). All compounds were assayed at the following 12 concentrations (in nM) with each biosensor: 0.000, 0.013, 0.040, 0.120, 0.320, 0.960, 2.80, 8.00, 24.0, 70.0, 205 and 600. • Three to 5 minutes later, an assay-specific effective concentration (EC)75-80 of agonist CP55,940 (i.e., 0.1 nM and 100 nM for G[…]i2-GAPL or […]Arrestin2 (+GRK2) assay, respectively) was added to wells previously injected with test compound (i.e., previous step 3). […]

human CB1 receptor [2] = target: T1, human CB1 receptor; test: bioSensAll β-arrestin2 plasma membrane translocation (+GRK2) BRET biosensor assay in HEK293 cells transfected with hCB1; test compound added before EC75-80 of agonist CP55,940 (100 nM); type: cell-based; conditions: βArrestin2 (+GRK2) BRET biosensor, vs CP55,940 100 nM (EC75-80), read-out: CB1 wt βarr2 IC50
Procedure: as §1, §2, §3
ii) The multimolecular β-arrestin membrane recruitment biosensors allow for real-time spatio-temporal monitoring of β-arrestin 1 and β-arrestin 2 following GPCR activation. Specifically, these β-arrestin sensors were designed to detect the recruitment of proteins to the plasma membrane (β-arrestin PM) with localization to compartment resulting in an increased BRET signal.
as §4, §5, §6, §7

T1 sequence (P21554 whole entry): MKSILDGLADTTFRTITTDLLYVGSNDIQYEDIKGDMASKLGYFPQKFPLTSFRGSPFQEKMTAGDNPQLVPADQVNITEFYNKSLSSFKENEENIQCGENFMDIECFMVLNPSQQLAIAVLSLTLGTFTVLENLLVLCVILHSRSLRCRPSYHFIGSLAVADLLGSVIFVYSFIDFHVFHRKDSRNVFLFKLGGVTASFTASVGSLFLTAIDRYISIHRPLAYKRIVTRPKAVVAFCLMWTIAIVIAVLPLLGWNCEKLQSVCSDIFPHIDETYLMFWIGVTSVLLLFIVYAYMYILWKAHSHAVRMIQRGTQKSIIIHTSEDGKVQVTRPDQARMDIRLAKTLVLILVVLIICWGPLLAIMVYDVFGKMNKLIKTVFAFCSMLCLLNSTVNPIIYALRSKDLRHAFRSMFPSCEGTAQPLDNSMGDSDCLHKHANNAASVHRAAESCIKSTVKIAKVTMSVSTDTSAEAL

| Structure (SMILES) | IC50 (human CB1 receptor [1]) [nM] | IC50 (human CB1 receptor [2]) [nM] |
| --- | --- | --- |
| Cc1cnn(-c2nc(N3CCC(C(F)(F)F)CC3)c3nc(-c4ccccc4Cl)n(-c4ccc(Cl)cc4)c3n2)c1 [Compound 21, 8-(2-chlorophenyl)-9-(4-chlorophenyl)-2-(4-methylpyrazol-1-yl)-6-[4-(trifluoromethyl)-1-piperidyl]purine] | 4.37 | 28.9 |
| CN(CCO)c1nc(N2CC(C)(O)C2)c2nc(-c3ccccc3Cl)n(-c3ccc(Cl)cc3)c2n1 [Compound 74] | 0.574 | 3.02 |
| CN1CCN(c2nc(OCC(C)(C)O)nc3c2nc(-c2ccccc2Cl)n3-c2ccc(Cl)cc2)CC1 [Compound 227] | 4.78 | 11.7 |
| CN(CCO)c1nc(N2CCC3(CCOC3)CC2)c2nc(-c3ccccc3Cl)n(-c3ccc(Cl)cc3)c2n1 [Compound 191] | 0.418 | 0.626 |
| CN(CC(C)(C)O)c1nc(N2CC(C(N)=O)C2)c2nc(-c3ccccc3Cl)n(-c3ccc(Cl)cc3)c2n1 [Compound 128] | 9.52 | 39.5 |
| CC1(C(N)=O)CCN(c2nc(OCCO)nc3c2nc(-c2ccccc2Cl)n3-c2ccc(Cl)cc2)CC1 [Compound 78, 1-[8-(2-chlorophenyl)-9-(4-chlorophenyl)-2-(2-hydroxyethoxy)purin-6-yl]-4-methyl-piperidine-4-carboxamide] | 0.995 | 5.68 |
| CN(CCO)c1nc(N2CCC(C)(C(N)=O)CC2)c2nc(-c3cncn3C)n(-c3ccc(Cl)cc3)c2n1 [Compound 58, 1-[9-(4-chlorophenyl)-2-[2-hydroxyethyl(methyl)amino]-8-(3-methylimidazol-4-yl)purin-6-yl]-4-methyl-piperidine-4-carboxamide] | 6.91 | 515 |
| Cc1cn(C)c(-c2nc3c(N4CCC(C)(C(N)=O)CC4)nc(N(C)CCO)nc3n2-c2ccc(Cl)cc2)n1 [Compound 57, 1-[9-(4-chlorophenyl)-8-(1,4-dimethylimidazol-2-yl)-2-[2-hydroxyethyl(methyl)amino]purin-6-yl]-4-methyl-piperidine-4-carboxamide] | 41.2 | 121 |
| CCNC1(C(N)=O)CCN(c2nc(N(C)CCO)nc3c2nc(-c2ccccc2Cl)n3-c2ccc(Cl)cc2)CC1 [Compound 148] | 1 | 1.49 |
| CC1(C(N)=O)CCN(c2nc(N(CCO)Cc3ccccc3)nc3c2nc(-c2ccccc2Cl)n3-c2ccc(Cl)cc2)CC1 [Compound 12, 1-[2-[benzyl(2-hydroxyethyl)amino]-8-(2-chlorophenyl)-9-(4-chlorophenyl)purin-6-yl]-4-methyl-piperidine-4-carboxamide] | 0.5 | 3.09 |
| CN(C)CCNc1nc(N2CCC(C)(C(N)=O)CC2)c2nc(-c3ccccc3Cl)n(-c3ccc(Cl)cc3)c2n1 [Compound 102, 1-[8-(2-chlorophenyl)-9-(4-chlorophenyl)-2-[2-(dimethylamino)ethylamino]purin-6-yl]-4-methyl-piperidine-4-carboxamide] | 50 | 40.1 |
| CCOC1(C(N)=O)CCCN(c2nc(OCC(C)(C)O)nc3c2nc(-c2ccccc2Cl)n3-c2ccc(Cl)cc2)C1 (single isomer, unassigned) [Compound 217] | 27 | 73.7 |
| CC(O)COc1nc(N2CCC(C(F)(F)F)CC2)c2nc(-c3ccccc3Cl)n(-c3ccc(Cl)cc3)c2n1 (single isomer, unassigned) [Compound 25, 1-[8-(2-chlorophenyl)-9-(4-chlorophenyl)-6-[4-(trifluoromethyl)-1-piperidyl]purin-2-yl]oxypropan-2-ol] | 0.706 | 2.06 |
| Cc1ccn(-c2nc(N3CCC(C)(C(N)=O)CC3)c3nc(-c4ccccc4Cl)n(-c4ccc(Cl)cc4)c3n2)n1 [Compound 4, 1-[8-(2-chlorophenyl)-9-(4-chlorophenyl)-2-(3-methylpyrazol-1-yl)purin-6-yl]-4-methyl-piperidine-4-carboxamide] | 2.03 | 10.4 |
| CC(=O)NC1(C)CCN(c2nc(OCC(C)(C)O)nc3c2nc(-c2ccccc2Cl)n3-c2ccc(Cl)cc2)CC1 [Compound 226] | 0.767 | 2.31 |
| CN(CCO)c1nc(N2CCC(C)(C(N)=O)CC2)c2nc(-c3ncccc3F)n(-c3ccc(Cl)cc3)c2n1 [Compound 50, 1-[9-(4-chlorophenyl)-8-(3-fluoro-2-pyridyl)-2-[2-hydroxyethyl(methyl)amino]purin-6-yl]-4-methyl-piperidine-4-carboxamide] | 8.41 | 47.8 |
| Cc1cnccc1-c1nc2c(N3CCC(C)(C(N)=O)CC3)nc(OCC(C)(C)O)nc2n1-c1ccc(Cl)cc1 [Compound 122, 1-[9-(4-chlorophenyl)-2-(2-hydroxy-2-methyl-propoxy)-8-(3-methyl-4-pyridyl)purin-6-yl]-4-methyl-piperidine-4-carboxamide] | 14.6 |  |
| CN(CP(C)(C)=O)c1nc(N2CCC(C)(C(N)=O)CC2)c2nc(-c3ccccc3Cl)n(-c3ccc(Cl)cc3)c2n1 [Compound 71, 1-[8-(2-chlorophenyl)-9-(4-chlorophenyl)-2-[dimethylphosphorylmethyl(methyl)amino]purin-6-yl]-4-methyl-piperidine-4-carboxamide] | 9.05 |  |
| CC(C)(O)COc1nc(N2CCC(C)(C(=O)O)CC2)c2nc(-c3ccc(C#N)nc3)n(-c3ccc(Cl)cc3)c2n1 [Compound 118, 1-[9-(4-chlorophenyl)-8-(6-cyano-3-pyridyl)-2-(2-hydroxy-2-methyl-propoxy)purin-6-yl]-4-methyl-piperidine-4-carboxylic acid] |  | > 5000 |
| CCOC1(C(=O)O)CCN(c2nc(OCC(C)(C)O)nc3c2nc(-c2ccccc2Cl)n3-c2ccc(Cl)cc2)CC1 [Compound 218] | 7.82 |  |
| Cc1nc(C#N)ccc1-c1nc2c(N3CCC(C)(C(N)=O)CC3)nc(OCC(C)(C)O)nc2n1-c1ccc(Cl)cc1 [Compound 107, 1-[9-(4-chlorophenyl)-8-(6-cyano-2-methyl-3-pyridyl)-2-(2-hydroxy-2-methyl-propoxy)purin-6-yl]-4-methyl-piperidine-4-carboxamide] | 27.7 |  |
| CC(=O)NC1(C)CN(c2nc(OCC(C)(C)OP(=O)(O)O)nc3c2nc(-c2ccccc2Cl)n3-c2ccc(Cl)cc2)C1 [Compound 239, 1-((6-(3-acetamido-3-methylazetidin-1-yl)-8-(2-chlorophenyl)-9-(4-chlorophenyl)-9H-purin-2-yl)oxy)-2-methylpropan-2-yl dihydrogen phosphate] | 27.4 |  |
| CC(C)(O)COc1nc(NCCO)c2nc(-c3ccccc3Cl)n(-c3ccc(Cl)cc3)c2n1 [Compound 98] |  | > 5000 |
| CC(C)(O)COc1nc(N2CCNCC2)c2nc(-c3ccccc3Cl)n(-c3ccc(Cl)cc3)c2n1 [Compound 219] | 59.7 |  |
| NC(=O)N1CC(Nc2nc(N3CCC[C@H]3CO)nc3c2nc(-c2ccccc2Cl)n3-c2ccc(Cl)cc2)C1 [Compound 175] | 5.3 |  |
| CC(C)(O)COc1nc(N2CC(C(N)=O)C2)c2nc(-c3ccccc3Cl)n(-c3ccc(Cl)cc3)c2n1 [Compound 238] | 13.8 |  |
| CN(CC(C)(C)O)c1nc(N2CC(C(N)=O)C2)c2nc(-c3ccc(C#N)nc3)n(-c3ccc(Cl)cc3)c2n1 [Compound 129] | 438 |  |
